“Also recorded” adds a separate entry of the source. Read-outs that look alike come from different tables or passages of the source.

Series [1] has as its system hla promoter. Put plainly: Paper disc diffusion and lux assay (hla promoter lux reporter). The series is classed as cell-based, S. aureus. The procedure: A single colony of bioluminescent S. aureus carrying the hla-promoter lux reporting system was resuspended in 200 μl of sterile water, diluted 1000-fold into 0.7% (w/v) BHI agar and overlaid onto BHI agar plates. 10 μl of the 50 mM analogues compounds dissolved in DMSO were impregnated to paper disc and placed on the lawn of bacteria. The plates were incubated overnight at 37° C. The luminescence was detected with Xenogen IVIS 100 in vivo imaging system (Xenogen, Alameda, Calif.).
In general terms: A growth-free zone around the sample is the usual read-out of agar diffusion tests.

Series [2] deals with Vero cells. The experiment in a line: Cytotoxicity assay (MTT). The series is classed as cell-based. The settings on record: for Cytotoxicity: MTT assays in Vero cells. The procedure:
MTT assays are performed for selected compounds on Vero cells according to product instructions.

Series [3] relates to hla promoter. The experiment in a line: Paper disc diffusion and lux assay (hla promoter lux reporter). To be noted: each compound used at 25 μM. It counts as cell-based, S. aureus.
The subject of series [4] is S. aureus Mu3. The experiment in a line: BALB/c mice infection model, organ bacterial load. The settings on record: 3 days after infection.
Source text: (§1) 6-8 weeks old female BALB/c mice were infected with 4×10^8 CFU of S. aureus. […] 3 days after infection, the animals were euthanized; kidneys, livers and spleens were homogenized in PBS, and plated on BHI agar for quantitative bacterial culture.
For series [5], the system named is S. aureus USA300. Put plainly: BALB/c mice infection model, organ bacterial load. The settings on record: 3 days after infection.
Source text: as §1
Series [6] deals with S. aureus. The experiment in a line: MIC of compound 3 and analogues (Table 7, strain not given).
The test system of series [7] is S. aureus Mu3. The experiment in a line: Secondary screening of compound 13 analogues in combination with gentamicin (growth by OD 595 nm). To be noted: for activity at 5 µM / activity at 20 µM / activity at 50 µM / inhibition at 20 µM / inhibition at 50 µM: Staphylococcus aureus; for activity at 5 µM / activity at 20 µM / activity at 50 µM: MU3, 16 h, read-out: relative growth; for inhibition at 20 µM: MU3, read-out: 20 μM + 200 μg/ml Gentamicin Growth inhibition Percentage; for inhibition at 50 µM: MU3, read-out: 50 μM + 200 μg/ml Gentamicin Growth inhibition Percentage; for relative growth: relative to DMSO = 1.
Procedure: All screening is done in 384-well polystyrene microtiter plates (Greiner Bio-One). Overnight culture of Mu3 is washed with BHI medium 3 times, diluted and plated to give 5×10^5 CFU/mL per well. The plates are incubated at 37° C. for 16 hours and growth is monitored by optical density reading at 595 nm using an automated DTX 880 multimode detector. Screening using BHI medium is designated as the background screen. […] Sub MIC concentration of antibiotics is selected for screening. BHI containing a final concentration for gentamicin 156.25 μg/mL is used correspondingly for individual experiments. […] Screening results with various antibiotics is normalized with the background screening to calculate the percentage of growth inhibition.
Identical experimental procedures are performed as primary screening procedures, except different concentrations of selected compound are tested.
Secondary like screening was performed with different concentrations of each analogue compounds were tested with different gentamicin concentration, 50 μM, 20 μM and 5 μM compound concentration were used against, BHI containing, 0 μg/ml, 100 μg/ml and 200 μg/ml gentamicin.

For series [8], the system named is S. aureus Mu3 strain. Put plainly: Microdilution checkerboard assay of compound with aminoglycosides. The settings on record: for Combinatory effect with gentamicin: checkerboard. (Broth dilution looks for growth in wells or tubes with falling amounts of substance.)
Procedure: The Checkerboard assay is performed in 96-well microtitre plates. […] The antibiotics are 2 fold serially diluted along the ordinate, the compounds are added along the abscissa to generate the checkerboard concentration gradients between the compounds and the antibiotics. Bacterial culture are topped and incubated overnight. Bacterial growth is monitored by the OD absorbance at 595 nm.
The concentration tested range was from 500M to 0.98 μM. MICs higher than 500M were not determined.
In series [9] the test system is MRSA Mu3. Put plainly: Minimal inhibitory concentration (MIC) test, broth micro-dilution. It counts as cell-based, Staphylococcus aureus. To be noted: microbroth dilution. How it is done: Preliminary testing of the MIC value of three antibiotics (Gentamicin, Ceftriaxone, and Levofloxacin) against MRSA Mu3 was performed according to microbroth dilution methods. This was to establish the reference for the appropriate amount of antibiotics to be used for HTS for hit identification of compounds that could have synergistic activities or potentiate the antibiotic's antimicrobial effect. The MIC value of Gentamicin against MRSA Mu3 was determined to be 1000 μg/mL.

Broadly, the MIC is the lowest concentration found to suppress growth. Regarding `O=C(O)CN1C(=O)/C(=C/c2ccc(OCc3ccccc3)cc2)SC1=S` [Compound 3], the “repression in hla promoter lux reporter assay” value (from here on “repression”) in series [1] is reported as “significant repression”. For the same compound, in series [2], the Cytotoxicity entry is reported as “Low”. Besides, the Relative lux signal in series [3] is recorded as 0.00439. Further, the kidney bacterial load result in series [4] is “reduction; also recorded: reduce kidney bacterial load”. Further, the liver bacterial load result in [4] and in [5] was “reduction; also recorded: reduce liver bacterial load” each time. The spleen bacterial load entry in series [4] and in series [5] was “reduction; also recorded: reduce spleen bacterial load” throughout. Besides, the MIC in series [6] (Staphylococcus aureus) was 500 µM. Also, the activity at 5 µM in [7] was determined as 118%. The activity at 20 µM in series [7] came to 109%. For the same compound, the activity at 50 µM in series [7] is 88%. Also, the inhibition at 20 µM in series [7] amounted to 60%. Also, the inhibition at 50 µM in [7] was found to be 92%. The relative growth is 1.12 in series [7] ([Cpd] 5 μM, [Genta] 100 ug/ml); 1.18 in series [7] ([Cpd] 5 μM, [Genta] 200 ug/ml); 0.94 in [7] ([Cpd] 20 μM, [Genta] 100 ug/ml); 0.4 in series [7] ([Cpd] 20 μM, [Genta] 200 ug/ml); “*0.09” in series [7] ([Cpd] 50 μM, [Genta] 100 ug/ml); “*0.08” in series [7] ([Cpd] 50 μM, [Genta] 200 ug/ml).
Consider `O=C(O)CN1C(=O)/C(=C/c2cccc(OCc3ccc(Cl)cc3Cl)c2)SC1=S` [Compound 17], for which the “cytotoxicity from Vero cell MTT assays” value in [2] is given as “high cytotoxicity”. In addition, the Cytotoxicity entry in series [2] was “High”. For the same compound, the “Combinatory effect with gentamicin” value in series [8] is recorded as “Potentiating”. Besides, the results for the “combined effect with gentamicin in inhibiting growth” value in series [8] and in series [8] (listed as compound 17) were “potentiating activities” and “potentiating effect”, respectively. The activity at 5 µM in [7] was found to be 99%. Moreover, the activity at 20 µM in series [7] turned out to be 74%. For the same compound, the activity at 50 µM in [7] was 43%. Further, the inhibition at 20 µM in [7] amounted to 91%. In addition, the inhibition at 50 µM in series [7] was 87%. In addition, the relative growth result is on record as “*0.35” in series [7] ([Cpd] 5 μM, [Genta] 100 ug/ml); “*0.1” in series [7] ([Cpd] 5 μM, [Genta] 200 ug/ml); “*0.09” in [7] ([Cpd] 20 μM, [Genta] 100 ug/ml); “*0.09” in series [7] ([Cpd] 20 μM, [Genta] 200 ug/ml); “*0.14” in [7] ([Cpd] 50 μM, [Genta] 100 ug/ml); “*0.13” in series [7] ([Cpd] 50 μM, [Genta] 200 ug/ml).
For `O=C(O)CN1C(=O)/C(=C/c2cccc(OCc3ccccc3Cl)c2)SC1=S` [Compound 19], in [2], the “cytotoxicity from Vero cell MTT assays” value is “less cytotoxicity” and the Cytotoxicity result was “Medium”. Besides, in series [8], the “Combinatory effect with gentamicin” value is on record as “Potentiating” and the “combined effect with gentamicin in inhibiting growth” value is on record as “promising potentiating effect”. In addition, the “combined effect with gentamicin in inhibiting growth” value in series [8] (listed as compound 19) is reported as “potentiating effect”. Besides, in series [7], the activity at 5 µM stood at 99%, the activity at 20 µM was found to be 91%, the activity at 50 µM was 76% and the inhibition at 20 µM was 91%. Besides, the inhibition at 50 µM in series [7] turned out to be 92%. In addition, the relative growth in series [7] ([Cpd] 5 μM, [Genta] 100 ug/ml) is given as 0.96. Moreover, the relative growth in series [7] ([Cpd] 5 μM, [Genta] 200 ug/ml) was 0.83. Moreover, the relative growth entry in series [7] ([Cpd] 20 μM, [Genta] 100 ug/ml) is listed as “*0.1”. Moreover, the relative growth result in [7] ([Cpd] 20 μM, [Genta] 200 ug/ml) is “*0.09”. In series [7] ([Cpd] 50 μM, [Genta] 100 ug/ml), the relative growth result is reported as “*0.09”. In [7] ([Cpd] 50 μM, [Genta] 200 ug/ml), the relative growth result is on record as “*0.08”.
As to `CCOc1cc(/C=C2\SC(=S)N(CC(=O)O)C2=O)ccc1OCc1ccc(Cl)cc1` [Compound 20], in series [2], the “cytotoxicity from Vero cell MTT assays” value is listed as “less cytotoxicity” and the Cytotoxicity entry is “Medium/Low”. In series [8], the “Combinatory effect with gentamicin” value is on record as “Potentiating” and the “combined effect with gentamicin in inhibiting growth” value is “promising potentiating effect”. For the same compound, the “combined effect with gentamicin in inhibiting growth” value in series [8] (listed as compound 20) is “potentiating effect”. In addition, in [7], the activity at 5 µM is 101%, the activity at 20 µM came out at 78%, the activity at 50 µM amounted to 91% and the inhibition at 20 µM came out at 91%. For the same compound, the inhibition at 50 µM in [7] worked out at 86%. For the same compound, the relative growth in [7] ([Cpd] 5 μM, [Genta] 100 ug/ml) was found to be 0.96. In addition, the relative growth in [7] ([Cpd] 5 μM, [Genta] 200 ug/ml) came out at 0.88. Moreover, in series [7] ([Cpd] 20 μM, [Genta] 100 ug/ml), the relative growth result was “*0.14”. Moreover, the relative growth result in series [7] ([Cpd] 20 μM, [Genta] 200 ug/ml) is reported as “*0.09”. Also, in series [7] ([Cpd] 50 μM, [Genta] 100 ug/ml), the relative growth entry was “*0.17”. Besides, in series [7] ([Cpd] 50 μM, [Genta] 200 ug/ml), the relative growth result is recorded as “*0.14”.
In the case of `CCCOc1ccc(/C=C2\SC(=S)N(CC(=O)O)C2=O)cc1` [Compound 48], the “repression” value in series [1] is “significant repression”. Besides, the activity at 5 µM in series [7] worked out at 98%. In [7], the activity at 20 µM was found to be 95%. Also, in [7], the activity at 50 µM was found to be 87%. For the same compound, in series [7], the inhibition at 20 µM came out at 36%. Also, the inhibition at 50 µM in series [7] was found to be 69%. Besides, the relative growth in series [7] ([Cpd] 5 μM, [Genta] 100 ug/ml) is reported as 0.97; in [7] ([Cpd] 5 μM, [Genta] 200 ug/ml), 0.96; in series [7] ([Cpd] 20 μM, [Genta] 100 ug/ml), 0.97; in [7] ([Cpd] 20 μM, [Genta] 200 ug/ml), 0.64; in series [7] ([Cpd] 50 μM, [Genta] 100 ug/ml), 0.8; in [7] ([Cpd] 50 μM, [Genta] 200 ug/ml), “*0.31”.
Consider `O=C(O)CN1C(=O)/C(=C/c2cccc(OCc3ccccc3F)c2)SC1=S` [Compound 63], for which the activity at 5 µM in series [7] came to 97%. The activity at 20 µM in series [7] is 93%. Moreover, the activity at 50 µM in series [7] was 84%. The inhibition at 20 µM in [7] was found to be 65%. For the same compound, the inhibition at 50 µM in series [7] came to 92%. Further, the relative growth in series [7] ([Cpd] 5 μM, [Genta] 100 ug/ml) is 0.97; in series [7] ([Cpd] 5 μM, [Genta] 200 ug/ml) it was 0.88; in series [7] ([Cpd] 20 μM, [Genta] 100 ug/ml) it was 0.67; in series [7] ([Cpd] 20 μM, [Genta] 200 ug/ml), “*0.35”; in [7] ([Cpd] 50 μM, [Genta] 100 ug/ml), “*0.11”; in [7] ([Cpd] 50 μM, [Genta] 200 ug/ml), “*0.08”.
For `COC(=O)CN1C(=O)C(=Cc2ccc(OCc3ccccc3)cc2)SC1=S` [Compound 69], the “20 μM + 200 μg/ml Gentamicin Growth inhibition Percentage” value in series [7] (20 μM compound + 200 μg/ml gentamicin, S. aureus Mu3) was determined as 89%. In [7] (50 μM compound + 200 μg/ml gentamicin, S. aureus Mu3), the “50 μM + 200 μg/ml Gentamicin Growth inhibition Percentage” value came out at 77%. The relative growth in [7] ([Cpd] 5 μM, BHI only (no gentamicin)) was 0.97; in [7] ([Cpd] 5 μM, [Genta] 100 ug/ml) it was 0.97; in series [7] ([Cpd] 5 μM, [Genta] 200 ug/ml), 0.98; in series [7] ([Cpd] 20 μM, BHI only (no gentamicin)) it was 1.02; in [7] ([Cpd] 20 μM, [Genta] 100 ug/ml), 0.56; in [7] ([Cpd] 20 μM, [Genta] 200 ug/ml), “*0.11”. Besides, the relative growth in series [7] ([Cpd] 50 μM, BHI only (no gentamicin)) was 0.55; in series [7] ([Cpd] 50 μM, [Genta] 100 ug/ml), “*0.27”; in series [7] ([Cpd] 50 μM, [Genta] 200 ug/ml), “*0.23”.
In the case of `COc1ccc(/C=C2/SC(=S)N(CCC(N)=O)C2=O)cc1` [Compound 87], in series [1], the “repression” value is on record as “hla promoter lux repression”. In series [3], this compound registered a Relative lux signal of 0.2657. For the same compound, in [6], the MIC was 500 µM.
For Gentamicin, the “MIC value against MRSA Mu3” value in series [9] is 1000 µg/mL.
